In patent publication US10927125B2, “Substituted cinnolines as inhibitors of KRAS G12C” (Araxes Pharma LLC, priority 2013, dated 2021):

Target: T1, KRAS G12C 1-169, his-tagged protein, GDP-loaded (Homo sapiens, UniProt P01116, G12C)
T1 construct: KRAS G12C 1-169, his-tagged protein, GDP-loaded
Experiment: Biochemical assay: covalent binding of compounds to KRAS G12C, analysed by mass spectrometry
Method: Compounds were tested for activity as follows:
Compounds were diluted to 50× final test concentration in DMSO in 96-well storage plates. […] Reactions were mixed carefully and thoroughly by pipetting up/down with a 200 μl multi-channel pipettor. The plate was sealed well with aluminum plate seal, and stored in drawer at room temperature for 30 min, 2 hour or 24 hrs. 51 μl of 2% formic acid (Fisher cat # A117) in DI H2O was then added to each well followed by mixing with a pipette. The plate was then resealed with aluminum seal and stored on dry ice until analyzed as described below.
The above described assays were analyzed by mass spectrometry according to the following procedure:
The MS instrument is set to positive polarity, 2 GHz resolution, and low mass (1700) mode and allowed to equilibrate for 30 minutes. The instrument is then calibrated, switched to acquisition mode and the appropriate method loaded.
After another 30 minute equilibration time, a blank batch (i.e., buffer) is run to ensure equipment is operating properly. The samples are thawed at 37° C. for 10 minutes, briefly centrifuged, and transfer to the bench top. Wells A1 and H12 are spiked with 1 uL 500 uM internal standard peptide, and the plates centrifuged at 2000×g for 5 minutes. The method is then run and masses of each individual well recorded.
The masses (for which integration data is desired) for each well are pasted into the platemap and exported from the analysis. Masses for the internal standards are exported as well. The data at 50 ppm is extracted for the +19 charge state, and identity of well A1 is assigned using the internal standard spike and integrated. Peak data is exported as a TOF list and the above steps are repeated individually, for the +20, 21, 22, 23, 24, and 25 charge states.

[1] = binding measured at 2 h (compounds 48-246)
[2] = binding measured at 30 min (compounds 247-375)

T1 sequence (P01116 1-169 isoform P01116-2 G12C): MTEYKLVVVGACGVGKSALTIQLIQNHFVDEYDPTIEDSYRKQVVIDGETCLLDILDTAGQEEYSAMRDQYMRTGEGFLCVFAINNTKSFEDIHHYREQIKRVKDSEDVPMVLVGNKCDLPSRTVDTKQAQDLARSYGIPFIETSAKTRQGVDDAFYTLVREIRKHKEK

| SMILES | Binding % [1] | Binding % [2] | also measured |
| --- | --- | --- | --- |
| C=CC(=O)N1CCN(c2ncnc3cc(-c4cc(O)c(F)cc4F)c(Cl)cc23)CC1 [Compound 206, 1-(4-(6-chloro-7-(2,4-difluoro-5-hydroxyphenyl)quinazolin-4-yl)piperazin-1-yl)prop-2-en-1-one] | +++ (+++ indicates binding activity greater than 50% and up to 75%) |  |  |
| C=CC(=O)N1CCN(c2nc(NC3CCN(CC(F)(F)F)C3)nc3c(F)c(-c4cc(O)cc5ccccc45)c(Cl)cc23)CC1 (stereo not shown) [Compound 349, 1-(4-(6-chloro-8-fluoro-7-(3-hydroxynaphthalen-1-yl)-2-(1-(2,2,2-trifluoroethyl)pyrrolidin-3-ylamino)quinazolin-4-yl)piperazin-1-yl)prop-2-en-1-one] |  | +++ (+++ indicates binding activity greater than 50% and up to 75%) |  |
| C=CC(=O)N1CCN(c2ncnc3cc(N4CCCCC4)c(Cl)cc23)CC1 [Compound 80, 1-(4-(6-chloro-7-(piperidin-1-yl)quinazolin-4-yl)piperazin-1-yl)prop-2-en-1-one] | + (+ indicates binding activity from 5% to 25%) |  |  |
| C=CC(=O)N1CCN(c2cc(=O)[nH]c3cc(-c4c(C)ccc5[nH]ncc45)c(Cl)cc23)CC1 [Compound 326, 4-(4-acryloylpiperazin-1-yl)-6-chloro-7-(5-methyl-1H-indazol-4-yl)quinolin-2(1H)-one] |  | + (+ indicates binding activity from 5% to 25%) |  |
| C=CC(=O)N1CCN(c2nc(NC)nc3c(F)c(-c4cc(O)cc5ccccc45)c(Cl)cc23)CC1 [Compound 345, 1-(4-(6-chloro-8-fluoro-7-(3-hydroxynaphthalen-1-yl)-2-(methylamino)quinazolin-4-yl)piperazin-1-yl)prop-2-en-1-one] |  | ++++ (++++ indicates binding activity greater than 75%) |  |
| C=CC(=O)N1CCN(c2nc(NCCN(C)C)nc3c(F)c(-c4cc(O)cc5ccccc45)c(Cl)cc23)CC1 [Compound 355, 1-(4-(6-chloro-2-(2-(dimethylamino)ethylamino)-8-fluoro-7-(3-hydroxynaphthalen-1-yl)quinazolin-4-yl)piperazin-1-yl)prop-2-en-1-one] |  | ++++ (++++ indicates binding activity greater than 75%) |  |
| C=CC(=O)N1CCN(c2ncnc3cc(-c4cc(Cl)cc5[nH]ncc45)c(Cl)cc23)CC1 [Compound 266, 1-(4-(6-chloro-7-(6-chloro-1H-indazol-4-yl)quinazolin-4-yl)piperazin-1-yl)prop-2-en-1-one] |  | +++ (+++ indicates binding activity greater than 50% and up to 75%) |  |
| C=CC(=O)N1CCN(c2nc(OCCCN3CCOCC3)nc3c(F)c(-c4c(C)ccc5[nH]ncc45)c(Cl)cc23)CC1 [Compound 357, 1-(4-(6-chloro-8-fluoro-7-(5-methyl-1H-indazol-4-yl)-2-(3-morpholinopropoxy)quinazolin-4-yl)piperazin-1-yl)prop-2-en-1-one] |  | ++++ (++++ indicates binding activity greater than 75%) |  |
| C=CC(=O)N1CCN(c2nc(Oc3cnn(C)c3)nc3c(F)c(-c4c(C)ccc5[nH]ncc45)c(Cl)cc23)CC1 [Compound 375, 1-(4-(6-chloro-8-fluoro-7-(5-methyl-1H-indazol-4-yl)-2-(1-methyl-1H-pyrazol-4-yloxy)quinazolin-4-yl)piperazin-1-yl)prop-2-en-1-one] |  | +++ (+++ indicates binding activity greater than 50% and up to 75%) |  |
| C=CC(=O)N1CCN(c2nc(NCCc3nccn3C)nc3c(F)c(-c4c(C)ccc5[nH]ncc45)c(Cl)cc23)CC1 [Compound 352, 1-(4-(6-chloro-8-fluoro-2-(2-(1-methyl-1H-imidazol-2-yl)ethylamino)-7-(5-methyl-1H-indazol-4-yl)quinazolin-4-yl)piperazin-1-yl)prop-2-en-1-one] |  | ++++ (++++ indicates binding activity greater than 75%) |  |
| C=CC(=O)N1CCN(c2nc(NCC(F)(F)F)nc3c(F)c(-c4c(C)ccc5[nH]ncc45)c(Cl)cc23)CC1 [Compound 356, 1-(4-(6-chloro-8-fluoro-7-(5-methyl-1H-indazol-4-yl)-2-(2,2,2-trifluoroethylamino)quinazolin-4-yl)piperazin-1-yl)prop-2-en-1-one] |  | +++ (+++ indicates binding activity greater than 50% and up to 75%) |  |
| C=CC(=O)N1CCN(c2c(C(N)=O)cnc3cc(-c4ccccc4F)c(Cl)cc23)CC1 [Compound 189, 4-(4-acryloylpiperazin-1-yl)-6-chloro-7-(2-fluorophenyl)quinoline-3-carboxamide] | ++ (++ indicates binding activity greater than 25% and up to 50%) |  |  |
| C=CC(=O)N1CCN(c2nc(OCCN3CCN(C)CC3)nc3c(F)c(-c4c(C)ccc5[nH]ncc45)c(Cl)cc23)CC1 [Compound 373, 1-(4-(6-chloro-8-fluoro-7-(5-methyl-1H-indazol-4-yl)-2-(2-(4-methylpiperazin-1-yl)ethoxy)quinazolin-4-yl)piperazin-1-yl)prop-2-en-1-one] |  | +++ (+++ indicates binding activity greater than 50% and up to 75%) |  |
| C=CC(=O)N1CCN(c2nc(C)nc3cc(Cl)c(-c4ccc(Cl)cc4)cc23)CC1 [Compound 50, 1-(4-(7-chloro-6-(4-chlorophenyl)-2-methylquinazolin-4-yl)piperazin-1-yl)prop-2-en-1-one] | + (+ indicates binding activity from 5% to 25%) |  |  |
| C=CC(=O)N1CCN(c2nc(N(C)C)nc3c(F)c(-c4cc(O)cc5ccccc45)c(Cl)cc23)CC1 [Compound 344, 1-(4-(6-chloro-2-(dimethylamino)-8-fluoro-7-(3-hydroxynaphthalen-1-yl)quinazolin-4-yl)piperazin-1-yl)prop-2-en-1-one] |  | +++ (+++ indicates binding activity greater than 50% and up to 75%) |  |
| C=CC(=O)N1CCN(c2ncnc3c(F)c(-c4c(O)cccc4F)c(Cl)cc23)CC1 [Compound 353, (S)-1-(4-(6-chloro-8-fluoro-7-(2-fluoro-6-hydroxyphenyl)quinazolin-4-yl)piperazin-1-yl)prop-2-en-1-one] |  | ++++ (++++ indicates binding activity greater than 75%) |  |
| C=CC(=O)N1CCN(c2nc(NC3CCN(C)CC3)nc3c(F)c(-c4c(C)ccc5[nH]ncc45)c(Cl)cc23)CC1 [Compound 363, 1-(4-(6-chloro-8-fluoro-7-(5-methyl-1H-indazol-4-yl)-2-(1-methylpiperidin-4-ylamino)quinazolin-4-yl)piperazin-1-yl)prop-2-en-1-one] |  | ++++ (++++ indicates binding activity greater than 75%) |  |
| C=CC(=O)N1CCN(c2nc(OCCN(C)C)nc3c(F)c(-c4c(C)ccc5[nH]ncc45)c(Cl)cc23)CC1C (stereo not shown) [Compound 367, 1-(4-(6-chloro-2-(2-(dimethylamino)ethoxy)-8-fluoro-7-(5-methyl-1H-indazol-4-yl)quinazolin-4-yl)-2-methylpiperazin-1-yl)prop-2-en-1-one] |  | ++++ (++++ indicates binding activity greater than 75%) |  |
| C=CC(=O)N1CCC(n2c(=O)cnc3cc(-c4ccc(F)cc4F)c(Cl)cc32)CC1 [Compound 151, 1-(1-acryloylpiperidin-4-yl)-7-chloro-6-(2,4-difluorophenyl)quinoxalin-2(1H)-one] | + (+ indicates binding activity from 5% to 25%) |  |  |
| C=CC(=O)N1CCN(c2nc(N)nc3cc(Cl)c(-c4ccc(Cl)cc4)cc23)CC1 [Compound 39, 1-(4-(2-amino-7-chloro-6-(4-chlorophenyl)quinazolin-4-yl)piperazin-1-yl)prop-2-en-1-one] |  |  | Binding % (binding measured at 24 h (compounds 1-47)): + (+ indicates binding activity from 5% to 25%) |
| C#Cc1cnc2cc(-c3ccccc3F)c(Cl)cc2c1N1CCN(C(=O)C=C)CC1 [Compound 215, 1-(4-(6-chloro-3-ethynyl-7-(2-fluorophenyl)quinolin-4-yl)piperazin-1-yl)prop-2-en-1-one] | ++ (++ indicates binding activity greater than 25% and up to 50%) |  |  |
| C=CC(=O)N1CCN(c2cnnc3cc(-c4ccccc4F)c(Cl)cc23)CC1 [Compound 159, 1-(4-(6-chloro-7-(2-fluorophenyl)cinnolin-4-yl)piperazin-1-yl)prop-2-en-1-one] | +++ (+++ indicates binding activity greater than 50% and up to 75%) |  |  |
| C/C=C/C(=O)N1CCN(c2ncnc3c(F)c(-c4cc(O)cc5ccccc45)c(Cl)cc23)CC1 [Compound 328, (E)-1-(4-(6-chloro-8-fluoro-7-(3-hydroxynaphthalen-1-yl)quinazolin-4-yl)piperazin-1-yl)but-2-en-1-one] |  | + (+ indicates binding activity from 5% to 25%) |  |
| C=CC(=O)N1CCN(c2cnnc3cc(-c4c(C)ccc5[nH]ncc45)c(C(F)(F)F)cc23)CC1 [Compound 350, 1-(4-(7-(5-methyl-1H-indazol-4-yl)-6-(trifluoromethyl)cinnolin-4-yl)piperazin-1-yl)prop-2-en-1-one] |  | ++++ (++++ indicates binding activity greater than 75%) |  |
| C=CC(=O)N1CCN(c2ncnc3cc(-c4ccc(F)cc4C(F)(F)F)c(Cl)cc23)CC1 [Compound 119, 1-(4-(6-chloro-7-(4-fluoro-2-(trifluoromethyl)phe-nyl)quinazolin-4-yl)piperazin-1-yl)prop-2-en-1-one] | +++ (+++ indicates binding activity greater than 50% and up to 75%) |  |  |
